This is an account of results in patent publication US20240317777A1, “NOVEL MACROCYCLIC AMINOPYRAZOLE COMPOUNDS AS CDK2 INHIBITORS” (Accutar Biotechnology Inc., priority 2023, published 2024).

Common to all, as to format: cell-based
For experiment [1], the system named is Phospho-Rb (Ser807/811) in OVCAR3 cells. The experiment can be described thus: Phospho-Rb expression inhibition in OVCAR3 cells quantified by In Cell Western. As to conditions: read-out: OVCAR-3 pRb IC50. Here is the method:
Phospho-Rb Expression Inhibition in OVCAR3 Cells Quantified by in Cell Western
OVCAR3 cells were obtained from American Type Culture Collection (ATCC, HTB-161). OVCAR3 cells were plated in 96-well plates (VWR #10062-900, or Corning #3904) in 90 uL culture medium at a density of 20,000 cells/well in the RPM11640 growth medium containing 10% FBS and 1% Penicillin Streptomycin, and then incubated at 37° C. overnight. The following day, the test compound was administered to the cells by using 1000× compound stock solution prepared in DMSO at various concentrations. 1000× compound stock solution was first diluted in culturing medium to 10x, then 10 uL compound medium was added to each well in the cell plates. After administration of the compound, the cells were then incubated at 37° C. for 24 hours. Upon completion, the cells were washed with PBS briefly. 150 uL/well of 4% formaldehyde was added and the plates were incubated at room temperature for 20 mins. The cells were washed with PBS briefly, and permeabilized with 150 uL/well of ice cold 100% methanol for 10 mins. The cells were washed with PBS briefly and blocked with 100 uL/well LI-COR blocking buffer for 1 hr at room temperature with gentle shaking. The cells were incubated overnight at 4° C. with 50 uL primary antibody rabbit anti-Phospho-Rb (Ser807/811) (1:500, Cell Signaling, #8516) and anti-Rb (1:200, Santa Cruz, sc-73598) diluted in Intercept Blocking Buffer (LI-COR, #927-60001) containing 0.1% Tween 20. The next day, the cells were washed with 200 uL PBS containing 0.1% Tween 20, 5×5 mins at room temperature with gentle shaking, and incubated with 50 uL secondary antibody, IRDye® 800CW Goat anti-Rabbit IgG (1:1000, LI-COR, #926-32211) and IRDye® 680RD Goat anti-Mouse IgG (1:1000, LI-COR, #926-68070), in LI-COR blocking buffer with 0.2% Tween 20 for 1 hr at room temperature with gentle shaking. The cells were washed with 200 uL PBS containing 0.1% Tween 20, 5×5 mins at room temperature with gentle shaking. The cells were washed with PBS for 5 mins. 100 uL fresh PBS was added to each well and the plates were imaged on a LI-COR Odyssey CLX plate reader.

The subject of experiment [2] is CCNE1-amplified OVCAR3 cells. The experiment can be described thus: Cell growth inhibition of CCNE1-amplified OVCAR3 cells (CellTiter-Glo). To be noted: 6 days. Here is the method:
Cell Growth Inhibition of CCNE1-Amplified OVCAR3 Cells
(§1) OVCAR3 cells were seeded in 96-well plates at 2000 cells/well in 90 μl of RPM11640 growth medium containing 10% FBS and 1% Penicillin Streptomycin, and then incubated at 37° C. overnight. The following day, the test compound was administered to the cells by using 1000× compound stock solution prepared in DMSO at various concentrations. 1000× compound stock solution was first diluted in culturing medium to 10x, then 10 uL compound medium was added to each well in the cell plates. After administration of the compound, the cells were then incubated at 37° C. for 6 days. Upon completion, the plates were equilibrated at room temperature for approximately 10 minutes. 100 ul of CellTiter-Glo® Reagent (Promega) was added to each well. The plates were then incubated at room temperature for 10 minutes and luminescence was recorded by EnSpire plate reader (PerkinElmer).
A general note: ATP-based viability assays read luminescence as a measure of living cells.

Experiment [3] deals with CCNE1-normal SKOV3 cells. The experiment is described as follows: Cell growth inhibition of CCNE1-normal SKOV3 cells (CellTiter-Glo). As to conditions: Homo sapiens, SK-OV-3, 144 h, 6 days. Here is the method:
Cell Growth Inhibition of CCNE1-Normal SKOV3 Cells
as §1, with “SKOV3 cells were obtained from American Type Culture Collection (ATCC, HTB-77). SKOV3” for “OVCAR3”, “1000” for “2000”

Where [4] appears, read: Homo sapiens, OVCAR-3, 24 hours.

Molecules are shown by their SMILES. Like-named read-outs stand apart in the source and are kept apart here.

As to `C[C@H]1NC(=O)O[C@@H]2CC[C@@H](C2)c2n[nH]c(c2F)Nc2ccnc(c2)OCCC1(F)F` [Compound 228, (1^1S,1^3R,9R,E)-2^4,8,8-trifluoro-9-methyl-2^1H-5,12-dioxa-3,10-diaza-4(4,2)-pyridina-2(3,5)-pyrazola-1(1,3)-cyclopentanacyclododecaphan-11-one], the IC50 (commonly the concentration needed to halve the response being measured) in experiment [1] (setting [4]) is 50 to 250 nM; in experiment [2] (Homo sapiens, OVCAR-3, 144 h), 50 to 250 nM; in experiment [3], above 1250 nM.

`C[C@@H]1NC(=O)O[C@@H]2CC[C@@H](C2)c2cc([nH]n2)Nc2cncc(n2)OCCC1(F)F` [Compound 219, (1^1S,1^3R,9S,Z)-8,8-difluoro-9-methyl-2^1H-5,12-dioxa-3,10-diaza-4(2,6)-pyrazina-2(3,5)-pyrazola-1(1,3)-cyclopentanacyclododecaphan-11-one]: the IC50 in experiment [1] (setting [4]) is at most 2 nM; in experiment [2] (Homo sapiens, OVCAR-3, 144 h), at most 2 nM; in experiment [3], 10 to 50 nM.

`O=C1NCCCCCOc2cc(ccn2)Nc2cc([nH]n2)[C@H]2CC[C@H](C2)O1` [Compound 3, (1^1S,1^3R,Z)-2^1H-5,13-dioxa-3,11-diaza-4(4,2)-pyridina-2(3,5)-pyrazola-1(1,3)-cyclopentanacyclotridecaphan-12-one]: the IC50 is 10 to 50 nM in experiment [1] (setting [4]); 50 to 250 nM in experiment [2] (Homo sapiens, OVCAR-3, 144 h); above 1250 nM in experiment [3].

Consider `O=C1NCCCCOc2cc(ccn2)Nc2cc([nH]n2)[C@H]2CC[C@H](C2)O1` [Compound 1, (1^1S,1^3R,Z)-2^1H-5,12-dioxa-3,10-diaza-4(4,2)-pyridina-2(3,5)-pyrazola-1(1,3)-cyclopentanacyclododecaphan-11-one], for which the IC50 is 10 to 50 nM in experiment [1] (setting [4]); 10 to 50 nM in experiment [2] (Homo sapiens, OVCAR-3, 144 h); above 1250 nM in experiment [3].

Turning to `C[C@H]1Oc2cncc(c2)Nc2cc(n[nH]2)[C@H]2CC[C@H](C2)OC(=O)N[C@H]2C[C@@H]1C2` [Compound 147, (1^1S,1^3R,7^1S,7^3S,6R,Z)-6-methyl-2^1H-5,10-dioxa-3,8-diaza-4(3,5)-pyridina-2(3,5)-pyrazola-1(1,3)-cyclopentana-7(1,3)-cyclobutanacyclodecaphan-9-one], the IC50 in experiment [1] (setting [4]) was 50 to 250 nM; in experiment [2] (Homo sapiens, OVCAR-3, 144 h) it was 50 to 250 nM; in experiment [3], above 1250 nM.

As to `C[C@@H]1Oc2cc(ccn2)Nc2cc(n[nH]2)[C@H]2CC[C@H](C2)OC(=O)N[C@H]2C[C@@H]1C2` [Compound 145, (1^1S,1^3R,7^1S,7^3R,6S,Z)-6-methyl-2^1H-5,10-dioxa-3,8-diaza-4(4,2)-pyridina-2(3,5)-pyrazola-1(1,3)-cyclopentana-7(1,3)-cyclobutanacyclodecaphan-9-one], the concentration for half-maximal inhibition (IC50) is 50 to 250 nM in experiment [1] (setting [4]); 50 to 250 nM in experiment [2] (Homo sapiens, OVCAR-3, 144 h); above 1250 nM in experiment [3].

With `C[C@H]1CCCOc2cc(ccn2)Nc2[nH]nc(c2F)C2C[C@H](F)[C@@H](C2)OC(=O)N1` [Compound 238, (1^1S,1^3R,1^4S,9S,E)-1^4,2^4-difluoro-9-methyl-2^1H-5,12-dioxa-3,10-diaza-4(4,2)-pyridina-2(3,5)-pyrazola-1(1,3)-cyclopentanacyclododecaphan-11-one], the IC50 in experiment [1] (setting [4]) fell in the range of 10 to 50 nM; in experiment [2] (Homo sapiens, OVCAR-3, 144 h), 50 to 250 nM.

Consider `O=C1NC2CCN(CC2)c2cc(ccn2)Nc2cc(n[nH]2)[C@H]2CC[C@H](C2)O1` [Compound 136, (5^1S,5^3R,Z)-4^1H-6-oxa-3,8-diaza-2(2,4)-pyridina-1(1,4)-piperidina-4(5,3)-pyrazola-5(1,3)-cyclopentanacyclooctaphan-7-one], for which the IC50 in experiment [1] (setting [4]) is above 250 nM; in experiment [2] (Homo sapiens, OVCAR-3, 144 h) it was above 250 nM.

Consider `CC1CCCNC(=O)OC2CCC(C2)c2cc([nH]n2)Nc2cc(c[n+]([O-])c2)O1` [Compound 154, (1^1S,1^3R,6S,Z)-6-methyl-11-oxo-2^1H-5,12-dioxa-3,10-diaza-4(3,5)-pyridin-1-iuma-2(3,5)-pyrazola-1(1,3)-cyclopentanacyclododecaphane 41-oxide], for which the IC50 in experiment [1] (24 hours) was 50 to 250 nM; in experiment [2] it was above 250 nM.

In the case of `C[C@@H]1CCCNC(=O)O[C@@H]2CC[C@@H](C2)c2cc([nH]n2)Nc2cccc(c2)O1` [Compound 156, (1^1S,1^3R,6R,Z)-6-methyl-2^1H-5,12-dioxa-3,10-diaza-2(3,5)-pyrazola-4(1,3)-benzena-1(1,3)-cyclopentanacyclododecaphan-11-one], the IC50 in experiment [1] (setting [4]) was above 250 nM; in experiment [2] (Homo sapiens, OVCAR-3, 144 h), above 250 nM.

Turning to `C[C@H]1CCCOc2nccc(n2)Nc2[nH]nc(c2F)[C@H]2CC[C@H](C2)OC(=O)N1` [Compound 256, (1^1S,1^3R,9S,E)-2^4-fluoro-9-methyl-2^1H-5,12-dioxa-3,10-diaza-4(4,2)-pyrimidina-2(3,5)-pyrazola-1(1,3)-cyclopentanacyclododecaphan-11-one], the concentration for half-maximal inhibition (IC50) is 2 to 10 nM in experiment [1] (setting [4]) and 10 to 50 nM in experiment [2] (Homo sapiens, OVCAR-3, 144 h).

`O=C1N[C@H](C(F)(F)F)CCCOc2cc(ccn2)Nc2cc(n[nH]2)[C@H]2CC[C@H](C2)O1` [Compound 127, (1^1S,1^3R,9S,Z)-9-(trifluoromethyl)-2^1H-5,12-dioxa-3,10-diaza-4(4,2)-pyridina-2(3,5)-pyrazola-1(1,3)-cyclopentanacyclododecaphan-11-one]: the 50% inhibitory concentration (IC50) in experiment [1] (setting [4]) was above 250 nM; in experiment [2] (Homo sapiens, OVCAR-3, 144 h), above 250 nM.

As for `C[C@H]1CCCOc2cc(ccn2)Nc2[nH]nc(c2Cl)[C@H]2CC[C@H](C2)OC(=O)N1` [Compound 184, (1^1S,1^3R,9S,E)-2^4-chloro-9-methyl-2^1H-5,12-dioxa-3,10-diaza-4(4,2)-pyridina-2(3,5)-pyrazola-1(1,3)-cyclopentanacyclododecaphan-11-one], the IC50 in experiment [1] (setting [4]) is above 250 nM; in experiment [2] (Homo sapiens, OVCAR-3, 144 h) it was above 250 nM.

Regarding `CC1CCCNC(=O)OC2CCC(C2)c2cc([nH]n2)Nc2cc(c[n+]([O-])c2)O1` [Compound 153, (1^1S,1^3R,6R,Z)-6-methyl-11-oxo-2^1H-5,12-dioxa-3,10-diaza-4(3,5)-pyridin-1-iuma-2(3,5)-pyrazola-1(1,3)-cyclopentanacyclododecaphane 41-oxide], the IC50 in experiment [1] (24 hours) and in experiment [2] was above 250 nM in each case.

Regarding `C[C@H]1CCCOc2ncc(F)c(c2F)Nc2cc(n[nH]2)[C@H]2CC[C@H](C2)OC(=O)N1` [Compound 180, (1^1S,1^3R,9S,Z)-4^3,4^5-difluoro-9-methyl-2^1H-5,12-dioxa-3,10-diaza-4(4,2)-pyridina-2(3,5)-pyrazola-1(1,3)-cyclopentanacyclododecaphan-11-one], the IC50 in experiment [1] (setting [4]) is above 250 nM; in experiment [2] (Homo sapiens, OVCAR-3, 144 h), above 250 nM.

For the compound `C[C@H]1CC23CC(C2)(C3)NC(=O)O[C@@H]2CC[C@@H](C2)c2cc(n[nH]2)Nc2cc(nc(C(F)F)c2)O1` [compound 25], the IC50 in experiment [1] (setting [4]) is above 250 nM; in experiment [2] (Homo sapiens, OVCAR-3, 144 h), above 250 nM.

In the case of `C[C@H]1CCCOc2nccc(n2)Nc2cc(n[nH]2)[C@H]2CC[C@H](C2)OC(=O)N1` [Compound 241, (1^1S,1^3R,9S,Z)-9-methyl-2^1H-5,12-dioxa-3,10-diaza-4(4,2)-pyrimidina-2(3,5)-pyrazola-1(1,3)-cyclopentanacyclododecaphan-11-one], the IC50 in experiment [1] (setting [4]) is at most 2 nM; in experiment [2] (Homo sapiens, OVCAR-3, 144 h), at most 2 nM.
